Columns and labels:
[1] = Efficacy test comparing Attostat Ag to tobramycin (colony reduction); format: cell-based; settings: 4 μg/mL Attostat Ag vs 20 μg/mL tobramycin
Protocol: Efficacy tests similar to those of Examples 5 and 6 were performed to compare the efficacy of Attostat Ag to tobramycin. […]

E. coli ATCC #51813 = assay: Antibacterial efficacy test, Relative Light Unit (RLU) counts (ATP); format: cell-based
Protocol: The NIST nanoparticles are formed by a chemical reduction process that utilizes citrate as reducing and capping agent.
Relative Light Unit (RLU) counts were recorded at 12 hours and 24 hours post treatment. RLU measurements were carried out using a Hygiena SystemSURE Plus V.2 SN067503 RLU meter with Hygenia AquaSnap TOTAL ATP Water Test Cat #U143 Lot #153019. Culturing media was Hardy Diagnostics Buffered Peptone Water Lot #118272. Samples were prepared with the nanoparticle treatments and then diluted with the media to provide the tested concentrations. The test organism (Microbiologics, E. coli, KwikStik, ATCC #51813, Ref #0791 K, Lot #791-1-6) was incubated in fresh Buffered Peptone Water growth media for 24 hours prior to exposure to the nanoparticle treatments.

Compound	colony reduction, comparison [1]	RLU Counts at 12 Hours Post Exposure (E. coli ATCC #51813; 0.25 ppm (mg/L))	RLU Counts at 24 Hours Post Exposure (E. coli ATCC #51813; 0.25 ppm (mg/L))	RLU Counts at 12 Hours Post Exposure (E. coli ATCC #51813; 0.5 ppm (mg/L))	RLU Counts at 24 Hours Post Exposure (E. coli ATCC #51813; 0.5 ppm (mg/L))	RLU Counts at 12 Hours Post Exposure (E. coli ATCC #51813; 1.0 ppm (mg/L))	RLU Counts at 24 Hours Post Exposure (E. coli ATCC #51813; 1.0 ppm (mg/L))
NC[C@H]1O[C@H](O[C@H]2[C@H](O)[C@@H](O[C@H]3O[C@H](CO)[C@@H](O)[C@H](N)[C@H]3O)[C@H](N)C[C@@H]2N)[C@H](N)C[C@@H]1O [tobramycin]	equal colony reduction	–	–	–	–	–	–
O=[N+]([O-])[O-].[Ag+] [AgNO3 Silver Nitrate, silver nitrate]	–	80 RLU	25 RLU	75 RLU	46 RLU	84 RLU	30 RLU

From patent US12115250B2, “Use of nanoparticles for treating respiratory infections associated with cystic fibrosis” (EVOQ NANO, INC., priority 2019, dated 2024)
